Data: patent US8017612B2, “Piperazine compound and use thereof as a HCV polymerase inhibitor” (priority 2006, dated 2011)
Structures can show the parent of a compound that is named as a salt.

Legend:
[1] = molecular target: T1, HCV polymerase (NS5B) type 1a (Hepatitis C virus genotype 1a, UniProt P26664); test: Assay of enzyme (HCV polymerase) inhibitory activity, type 1a enzyme; type: biochemical, HCV type 1a (cloned from the blood of patients); settings: HCV polymerase inhibitory activity (IC50), 1a, type 1a enzyme 1.5 μg/ml, 25° C., 60 min
T1 construct: made in house; host or cells: Escherichia coli (by the 'similar method' of the 1b enzyme)
In short: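 Reactions ran 60 min at 25° C in 20 mM Tris-HCl pH 7.5, 5 mM MgCl2, 50 mM NaCl, holding genotype 1a NS5B (1.5 μg/ml, Δ47 C-terminus, 6His), substrate RNA 5 μg/ml, UTP 2 μM with tritiated UTP and other NTPs 50 μM. IC50 derived from incorporated radiolabel in filter-trapped RNA relative to uninhibited reaction.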

[2] = molecular target: T2, HCV polymerase (NS5B) type 1b (Hepatitis C virus genotype 1b, UniProt P26663); test: Assay of enzyme (HCV polymerase) inhibitory activity, type 1b enzyme; type: biochemical, HCV BK strain (type 1b); settings: HCV polymerase inhibitory activity (IC50), 1b, type 1b enzyme 0.5 μg/ml, 25° C., 60 min
T2 construct: a region encoding NS5B (J Virol 1991 March, 65(3), 1105-13, 544 amino acids after deletion of 47 amino acids on the C-terminal); 6xHis (C); made in house; host or cells: Escherichia coli
In short: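 IC50 derived from [3H]UTP incorporation into TCA-insoluble RNA, compared with and without test compound. Reaction (25 °C, 60 min, Tris pH 7.5, 5 mM MgCl2): E. coli-expressed 1b NS5B Δ47 with His tag at 0.5 μg/ml, 5 μg/ml run-off substrate RNA, ATP/GTP/CTP 50 μM, UTP 2 μM.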

Structure (SMILES)	IC50 [1]	IC50 [2]
CC(=O)N1CCN(S(=O)(=O)c2ccc(C(C)C)cc2)C(C(=O)NCc2ccc(N)cc2)C1 (stereo not drawn) [Example 90, 4-acetyl-1-(4-isopropyl-benzenesulfonyl)-piperazine-2-carboxylic acid 4-amino-benzylamide]	> 1000 nM	> 1000 nM
CCCCc1ccc(S(=O)(=O)N2CCN(C(C)=O)CC2C(=O)NCc2ccc(C(F)(F)F)cc2)cc1 (stereo not drawn) [Example 91, 4-acetyl-1-(4-butyl-benzenesulfonyl)-piperazine-2-carboxylic acid 4-trifluoromethyl-benzylamide]	> 1000 nM	> 1000 nM
CC(=O)N1CCN(S(=O)(=O)c2ccc(N(C)C)cc2)C(C(=O)NCc2ccc(C(F)(F)F)cc2)C1 (stereo not drawn) [Example 92, 4-acetyl-1-(4-dimethylamino-benzenesulfonyl)-piperazine-2-carboxylic acid 4-trifluoromethyl-benzylamide]	> 1000 nM	> 1000 nM
CC(=O)N1CCN(S(=O)(=O)c2ccc(N)cc2)C(C(=O)NCc2ccc(C(F)(F)F)cc2)C1 (stereo not drawn) [Example 93, 4-acetyl-1-(4-amino-benzenesulfonyl)-piperazine-2-carboxylic acid 4-trifluoromethyl-benzylamide hydrochloride]	> 1000 nM	> 1000 nM
COC(=O)CN1CCN(S(=O)(=O)c2ccc(I)cc2)C(C(=O)NCc2ccc(N(C)C)cc2)C1 (stereo not drawn) [Example 94, [3-(4-dimethylamino-benzylcarbamoyl)-4-(4-iodo-benzenesulfonyl)-piperazin-1-yl]-acetic acid methyl ester]	> 1000 nM	> 1000 nM
CN(C)CC(=O)N1CCN(S(=O)(=O)c2ccc(I)cc2)C(C(=O)NCc2ccc(N(C)C)cc2)C1 (stereo not drawn) [Example 95, 4-(2-dimethylamino-acetyl)-1-(4-iodo-benzenesulfonyl)-piperazine-2-carboxylic acid 4-dimethylamino-benzylamide]	> 1000 nM	> 1000 nM
CN(C)c1ccc(CNC(=O)C2CN(CC(=O)O)CCN2S(=O)(=O)c2ccc(I)cc2)cc1 (stereo not drawn) [Example 96, [3-(4-dimethylamino-benzylcarbamoyl)-4-(4-iodo-benzenesulfonyl)-piperazin-1-yl]-acetic acid]	> 1000 nM	> 1000 nM
CCC(C)(C)c1ccc(S(=O)(=O)N2CCN(C(C)=O)CC2C(=O)NCc2ccc(C(F)(F)F)cc2)cc1 (stereo not drawn) [Example 97, 4-acetyl-1-[4-(1,1-dimethyl-propyl)-benzenesulfonyl]-piperazine-2-carboxylic acid 4-trifluoromethyl-benzylamide]	> 1000 nM	> 1000 nM
CC(=O)N1CCN(S(=O)(=O)c2ccc(C(C)C)cc2)C(C(=O)NCc2ccc(NC(=O)C(C)(C)C)cc2)C1 (stereo not drawn) [Example 98, 4-acetyl-1-(4-isopropyl-benzenesulfonyl)-piperazine-2-carboxylic acid 4-(2,2-dimethyl-propionylamino)-benzylamide]	> 1000 nM	> 1000 nM
CC(=O)N1CCN(S(=O)(=O)c2ccc(C(C)C)cc2)C(C(=O)NCc2ccc(C(=O)O)cc2)C1 (stereo not drawn) [Example 99, 4-({[4-acetyl-1-(4-isopropyl-benzenesulfonyl)-piperazine-2-carbonyl]-amino}-methyl)-benzoic acid]	> 1000 nM	> 1000 nM
CC(=O)N1CCN(S(=O)(=O)c2ccc(C(C)C)cc2)C(C(=O)NCc2ccc(Cl)c(Cl)c2)C1 (stereo not drawn) [Example 100, 4-acetyl-1-(4-isopropyl-benzenesulfonyl)-piperazine-2-carboxylic acid 3,4-dichloro-benzylamide]	> 1000 nM	> 1000 nM
CC(=O)N1CCN(S(=O)(=O)c2ccc(C(C)C)cc2)C(C(=O)NCc2ccc(Cl)cc2Cl)C1 (stereo not drawn) [Example 101, 4-acetyl-1-(4-isopropyl-benzenesulfonyl)-piperazine-2-carboxylic acid 2,4-dichloro-benzylamide]	> 1000 nM	> 1000 nM
CN(C)c1ccc(CNC(=O)C2CN(C(=O)CN3CCCCC3)CCN2S(=O)(=O)c2ccc(I)cc2)cc1 (stereo not drawn) [Example 102, 1-(4-iodo-benzenesulfonyl)-4-(2-piperidin-1-yl-acetyl)-piperazine-2-carboxylic acid 4-dimethylamino-benzylamide]	> 1000 nM	> 1000 nM
CC(C)c1ccc(S(=O)(=O)N2CCN(C3=NCCN3)CC2C(=O)NCc2ccc(C(F)(F)F)cc2)cc1 (stereo not drawn) [Example 103, 4-(4,5-dihydro-1H-imidazol-2-yl)-1-(4-isopropyl-benzenesulfonyl)-piperazine-2-carboxylic acid 4-trifluoromethyl-benzylamide]	> 1000 nM	> 1000 nM
CN(C)c1ccc(CNC(=O)C2CN(C(=O)CN3CCOCC3)CCN2S(=O)(=O)c2ccc(I)cc2)cc1 (stereo not drawn) [Example 104, 1-(4-iodo-benzenesulfonyl)-4-(2-morpholin-4-yl-acetyl)-piperazine-2-carboxylic acid 4-dimethylamino-benzylamide]	> 1000 nM	> 1000 nM
CN(C)c1ccc(CNC(=O)C2CN(C(=O)CNCc3ccccc3)CCN2S(=O)(=O)c2ccc(I)cc2)cc1 (stereo not drawn) [Example 105, 4-(2-benzylamino-acetyl)-1-(4-iodo-benzenesulfonyl)-piperazine-2-carboxylic acid 4-dimethylamino-benzylamide]	> 1000 nM	> 1000 nM
COC(=O)c1ccc(S(=O)(=O)N2CCN(C(C)=O)CC2C(=O)NCc2ccc(C(F)(F)F)cc2)cc1 (stereo not drawn) [Example 106, 4-[4-acetyl-2-(4-trifluoromethyl-benzylcarbamoyl)-piperazine-1-sulfonyl]-benzoic acid methyl ester]	> 1000 nM	> 1000 nM
CC(=O)N1CCN(S(=O)(=O)c2ccc(C(=O)O)cc2)C(C(=O)NCc2ccc(C(F)(F)F)cc2)C1 (stereo not drawn) [Example 107, 4-[4-acetyl-2-(4-trifluoromethyl-benzylcarbamoyl)-piperazine-1-sulfonyl]-benzoic acid]	> 1000 nM	> 1000 nM
CC(=O)N1CCN(S(=O)(=O)c2ccc(C(C)C)cc2)C(C(=O)NCc2ccc(-c3cnn(C)c3)cc2)C1 (stereo not drawn) [Example 108, 4-acetyl-1-(4-isopropyl-benzenesulfonyl)-piperazine-2-carboxylic acid 4-(1-methyl-1H-pyrazol-4-yl)-benzylamide]	> 1000 nM	> 1000 nM
CC(=O)N1CCN(S(=O)(=O)c2ccc(C(C)C)cc2)C(C(=O)NCc2ccc(N3CCCCC3)cc2)C1 (stereo not drawn) [Example 109, 4-acetyl-1-(4-isopropyl-benzenesulfonyl)-piperazine-2-carboxylic acid 4-piperidin-1-yl-benzylamide]	> 1000 nM	> 1000 nM
CCCN(CCC)CC(=O)N1CCN(S(=O)(=O)c2ccc(I)cc2)C(C(=O)NCc2ccc(N(C)C)cc2)C1 (stereo not drawn) [Example 110, 4-(2-dipropylamino-acetyl)-1-(4-iodo-benzenesulfonyl)-piperazine-2-carboxylic acid 4-dimethylamino-benzylamide]	> 1000 nM	> 1000 nM
CC(C)c1ccc(S(=O)(=O)N2CCN(C(N)=S)CC2C(=O)NCc2ccc(C(F)(F)F)cc2)cc1 (stereo not drawn) [Example 111, 1-(4-isopropyl-benzenesulfonyl)-4-thiocarbamoyl-piperazine-2-carboxylic acid 4-trifluoromethyl-benzylamide]	> 1000 nM	> 1000 nM
CC(C)c1ccc(S(=O)(=O)N2CCN(C3=NCCS3)CC2C(=O)NCc2ccc(C(F)(F)F)cc2)cc1 (stereo not drawn) [Example 112, 4-(4,5-dihydro-thiazol-2-yl)-1-(4-isopropyl-benzenesulfonyl)-piperazine-2-carboxylic acid 4-trifluoromethyl-benzylamide]	> 1000 nM	> 1000 nM
CN(C)c1ccc(CNC(=O)C2CN(C(=O)CCN3CCOCC3)CCN2S(=O)(=O)c2ccc(I)cc2)cc1 (stereo not drawn) [Example 113, 1-(4-iodo-benzenesulfonyl)-4-(3-morpholin-4-yl-propionyl)-piperazine-2-carboxylic acid 4-dimethylamino-benzylamide]	> 1000 nM	> 1000 nM
CCCN(CCC)CCC(=O)N1CCN(S(=O)(=O)c2ccc(I)cc2)C(C(=O)NCc2ccc(N(C)C)cc2)C1 (stereo not drawn) [Example 114, 4-(3-dipropylamino-propionyl)-1-(4-iodo-benzenesulfonyl)-piperazine-2-carboxylic acid 4-dimethylamino-benzylamide]	> 1000 nM	> 1000 nM
Cc1csc(N2CCN(S(=O)(=O)c3ccc(C(C)C)cc3)C(C(=O)NCc3ccc(C(F)(F)F)cc3)C2)n1 (stereo not drawn) [Example 115, 1-(4-isopropyl-benzenesulfonyl)-4-(4-methyl-thiazol-2-yl)-piperazine-2-carboxylic acid 4-trifluoromethyl-benzylamide]	> 1000 nM	> 1000 nM
CC(=O)N1CCN(S(=O)(=O)c2ccc(C(C)C)cc2)C(C(=O)NCc2ccc(-c3ccc(Cl)cc3)cc2)C1 (stereo not drawn) [Example 116, 4-acetyl-1-(4-isopropyl-benzenesulfonyl)-piperazine-2-carboxylic acid (4′-chloro-biphenyl-4-ylmethyl)-amide]	> 1000 nM	> 1000 nM
